Experimental data published in patent US20240139166A1, “OPHTHALMIC COMPOSITIONS FOR PRESBYOPIA” (Sydnexis, Inc., priority 2021, published 2024).

Assay: Stability of pilocarpine in deuterated water (pilocarpic acid formation)
Type: physicochemical
Description: The stability of pilocarpine was tested over a range of concentrations. Pilocarpic acid formation, a major degradant of pilocarpine, was measured. […] The stability of pilocarpine, as measured by the percent of pilocarpic acid formation, was measured at different pH/pD values, as depicted in FIG. 2.

CC[C@@H]1C(=O)OC[C@@H]1Cc1cncn1C [pilocarpine]
Stability (pilocarpic acid formation) in deuterated water versus non-deuterated water (FIG. 1): improved stability in deuterated water as compared to non-deuterated water
Stability (pilocarpic acid formation) over a range of pilocarpine concentrations (FIG. 1): improved stability at higher concentrations of pilocarpine
Stabilizing factor of deuterated water versus pilocarpine concentration (FIG. 1): stabilizing factor increases as pilocarpine concentration decreases
Rate of pilocarpic acid formation at different pH/pD values (FIG. 2): linear log/log relationship was identified between the log(rate of pilocarpic acid formation) and pH
